The source of these data is patent US20050239061A1, “Identification and use of effectors and allosteric molecules for the alteration of gene expression” (priority 2000, published 2005).

What is called Tmax is the time from dosing to the highest level.

Read-outs that look alike come from different tables or passages of the source.

The conditions of data set [1]: cited from earlier work.
The next data set deals with T1, HIV RT (Human immunodeficiency virus type 1 group M subtype B, UniProt P04585).
T1 construct: Atevirdine/nonnucleoside reverse
To be noted: cited from earlier work.

The conditions of data set [2]: cited from earlier work; for Biodistribution: in vivo.
For data set [3] the following is noted: in vivo; cited from earlier work.
Another data set has as its system TA-50 ribozyme. Put plainly: Theophylline-dependent self-cleavage of ribozyme TA-50. In kind it is biochemical. To be noted: FIG. 9.

For the molecule `CCNc1cccnc1N1CCN(C(=O)c2cc3cc(OC)ccc3[nH]2)CC1` [Atevirdine], in data set [1] (oral), the Bioavailability result is recorded as “well absorbed orally” and the “time to peak serum” value is 30 to 60 min. For the same molecule, the “Other Pharmacology” value at HIV RT is “Viral target, no other known activity”. For the same molecule, in data set [2], the Biodistribution entry is reported as “Widely distributed, crosses blood-brain”. Further, the “maximum concentration of drug in serum” value in data set [2] (oral delivery) is on record as “delivery): 7.3 uM”.
In the case of `Cl.O=C(O)c1cn(C2CC2)c2c(Cl)c(N3C[C@@H]4CCCN[C@@H]4C3)c(F)cc2c1=O` [Bay-y-3118], the “Toxicity/Drug Interactions” value in data set [3] was “No abnormal findings in humans”. Moreover, in data set [1] (oral), the Bioavailability result is on record as “Orally absorbed”, the Half life was 11.4 h and the Tmax is 1.3 h.
In the case of `CN1CCN(c2cc3c(cc2F)c(=O)c(C(=O)O)cn3-c2ccc(F)cn2)CC1.Cl` [Fandofloxacin], in data set [3], the “Toxicity/Drug Interactions” value was “Well tolerated, v. low phototoxicity”. The Bioavailability entry in data set [1] (oral) is “Orally absorbed”. Besides, in data set [2], the Biodistribution entry was “Good organ distribution including muscle”.
Turning to `Cc1oc(-c2ccccc2)nc1CCOc1ccc(C[C@H](Nc2ccccc2C(=O)c2ccccc2)C(=O)O)cc1` [GW-2570], the Bioavailability result in data set [1] (in vivo, po) is “Oral”. In data set [2], the Biodistribution entry was “Muscle and adipose”.
On to `O=C1NC(=O)C(Cc2ccc3cc(OCc4ccccc4F)ccc3c2)S1` (stereo not shown) [MCC-555], for which the “Toxicity/Drug Interactions” value in data set [3] is listed as “Liver toxicity (controversial)”. In addition, the Bioavailability result in data set [1] (in vivo, po) is reported as “Oral”. In addition, in data set [2], the Biodistribution result was “Muscle and adipose”.
As to `COc1ccc2c(c1)N(C(=O)OC(C)C)[C@@H](CSC)C(=S)N2` [Talviraline], the “Other Pharmacology” value at HIV RT is “Viral target, no other known activity”. For the same molecule, the Biodistribution entry in data set [2] is “Wide”.
Consider `CSc1nc2cc(Cl)c(Oc3cccc(Cl)c3Cl)cc2[nH]1` [Triclabendazole], for which, in data set [3], the “Toxicity/Drug Interactions” value is reported as “Low/none in humans”. For the same molecule, the Bioavailability entry in data set [1] (oral) is on record as “Oral”. Moreover, the Biodistribution entry in data set [2] was “Liver/metabolism important”.
For the molecule `Cn1c(=O)c2[nH]cnc2n(C)c1=O` [theophylline], the “Toxicity/Drug Interactions” value in data set [3] is given as “acceptable”. In the data set with TA-50 ribozyme, the “theophylline concentration giving highest cleavage activity of TA-50 ribozyme” value lay in the range of 10 to 50 µM.

B1: TA-50: theophylline-responsive self-cleaving hammerhead ribozyme sequence selected after seven cycles, SEQ ID NO:5 (nucleic acid)
chain: GGGAGAGGGAUCCAGCUGACGAGUACUGAAUACCAGCCGAAAGGCCCUUGGCAGGUUUGGUGAAACGCCUUCGGCGUCCUGGAUUAGAACUUC
modifications: listed as RNA, chemistry not given here
On to B1, for which the self-cleaving ability entry in the data set with TA-50 ribozyme (presence of theophylline) is recorded as “strongly dependent on the presence of theophylline”.
